Source: patent publication US8708475B2, “Ultraviolet crosslinking inkjet ink, ink cartridge containing same, and image forming method and apparatus using same” (Ricoh Company, Ltd., priority 2010, dated 2014)
Entries after “also recorded” stand apart in the source; their conditions may differ. Read-outs that look alike come from different tables or passages of the source.

Assays:
[1] = described in the MSDS; cited from earlier work
mice [2] = conditions: mouse, in vivo
[3] = in vivo; cited from earlier work
mice [4] = experiment: LLNA method skin sensitization test (OECD Test Guideline 429), stimulation index from BrdU content of auricular lymph nodes; conditions: mouse, in vivo
[5] = maximization method, Contact Dermatitis 8 223-235 (1982); cited from earlier work

Compound	skin sensitization potential [5]	SI value, bound stated for listed methacrylates (mice [2])	other results
CSc1ccc(C(=O)C(C)(C)N2CCOCC2)cc1 [2-Methyl-1-[4-(methylthio)phenyl]-2-morphorinopropane-1-one]	–	–	skin sensitization potential [1]: no skin sensitization potential; also recorded: pane-1-one (nega-
C=C(C)C(=O)OCC(C)(C)COC(=O)C(=C)C [Neopentyl glycol dimethacrylate]	–	–	SI value, bound stated for listed methacrylates (mice [2]; female, 3 days): less than 3
C=CC(=O)OCC(CC)(COC(=O)C=C)COC(=O)C=C [Trimethylolpropane triacrylate]	–	–	skin irritation potential (in words) [3]: high skin irritation potential
C=C(C)C(=O)OCC(CC)(COC(=O)C(=C)C)COC(=O)C(=C)C [Trimethylolpropane trimethacrylate]	–	–	skin irritation potential (in words) [3]: low skin irritation potential; skin sensitization potential (in words) (mice [4]): low skin sensitization potential
C=C(C)C(=O)OCCCCCC [n-Hexyl methacrylate]	negative skin sensitization potential	less than 3	–
C=C(C)C(=O)OCCCCC [n-Pentyl methacrylate]	negative skin sensitization potential	less than 3	–
C=C(C)C(=O)OC(C)(C)C [t-Butyl methacrylate]	negative skin sensitization potential	less than 3	–
Polyethylene glycol (400) dimethacrylate	–	less than 3	–
Polyethylene glycol (600) dimethacrylate	–	less than 3	–
